Measurements reported in patent publication US8808702B2, “Sulfide, sulfoxide and sulfone chalcone analogues, derivatives thereof and therapeutic uses thereof” (Temple University-of the Commonwealth System of Higher …, priority 2006, dated 2014).
pIC50: −log10 of the molar value. Like-named read-outs stand apart in the source and are kept apart here.

Experiments:
[1] = test system: K562 (chronic myelogenous leukaemia); assay: Effect of compounds on tumor cell lines (assay of Latham et al.), K562; format: cell-based; conditions: K562 cells, read-out: K 562 potency (IC50)
Outline: (§1)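 K562 or DU145 cells plated at 2.5×10^4 cells/well, treated 24 h later with compound in DMSO at 1 μM to 100 μM (0.1 μM to 100 μM for one compound). Activity judged by microscopic observation after 96 h; where needed, viable cells counted by trypan blue exclusion.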

[2] = test system: DU145 (prostate cancer); assay: Effect of compounds on tumor cell lines (assay of Latham et al.), DU145; format: cell-based; conditions: DU145 cells, read-out: DU 145 potency (IC50)
Outline: as §1

[3] = 96 hours after treatment, 1 μM to 100 μM
[4] = Table 3, examined 96 hours after treatment, 1 μM to 100 μM in DMSO
[5] = Homo sapiens, Table 4, examined 96 hours after treatment, 1 μM to 100 μM in DMSO
[6] = Homo sapiens, DU-145, Table 4, examined 96 hours after treatment, 1 μM to 100 μM in DMSO
[7] = Table 4, examined 96 hours after treatment, 1 μM to 100 μM in DMSO

Cc1ccc(CS/C(=C/c2ccc(F)c([N+](=O)[O-])c2)C(=O)c2ccc(C(=O)O)cc2)cc1 [Example 347]
pIC50 [1, 3]: ≥ 6.00 | pIC50 [2, 3]: 5.00 to 6.00

Cc1ccc(CS/C(=C/c2ccc(F)c([N+](=O)[O-])c2)C(=O)c2ccc(C(=O)O)cc2)cc1 [Example 348]
pIC50 [1, 3]: 5.00 to 6.00 | pIC50 [2, 3]: 4.60 to 5.00

Cc1ccc(CS/C(=C/c2ccc(F)c([N+](=O)[O-])c2)C(=O)c2ccc(Cl)c([N+](=O)[O-])c2)cc1 [Example 349]
pIC50 [1, 3]: ≥ 6.00 | pIC50 [2, 3]: 5.00 to 6.00

O=C(O)c1ccc(C(=O)/C(=C\c2ccc(Cl)c([N+](=O)[O-])c2)SCc2ccc(C(F)(F)F)cc2)cc1 [Example 350]
pIC50 [1, 3]: 5.00 to 6.00 | pIC50 [2, 3]: 5.00 to 6.00

O=C(O)c1ccc(C(=O)/C(=C\c2ccc(F)c([N+](=O)[O-])c2)SCc2ccc(C(F)(F)F)cc2)cc1 [Example 351]
pIC50 [1, 3]: ≥ 6.00 | pIC50 [2, 3]: 5.00 to 6.00

O=C(O)c1ccc(C(=O)/C(=C\c2ccc(F)c([N+](=O)[O-])c2)SCc2nc3ccc(Br)cc3[nH]2)cc1 [Example 352]
pIC50 [1, 3]: 5.00 to 6.00 | pIC50 [2, 3]: 5.00 to 6.00

O=C(O)c1ccc(C(=O)/C(=C\c2ccc(F)c([N+](=O)[O-])c2)SCc2ccccc2)cc1 [Example 353]
pIC50 [1, 3]: ≥ 6.00 | pIC50 [2, 3]: 5.00 to 6.00

COc1cc(OC)c(/C=C(\C(=O)c2ccc(Cl)cc2)[S+]([O-])Cc2ccccc2Cl)c(OC)c1 (stereo not drawn) [Example 354]
pIC50 [1, 4]: 4.00 to 4.30 | pIC50 [2, 4]: 4.60 to 5.00

O=C(/C(=C\c1ccc(F)cc1C(F)(F)F)[S+]([O-])Cc1ccc(Cl)cc1)c1ccc(Cl)cc1 (stereo not drawn) [Example 355]
pIC50 [1, 4]: 4.00 to 4.30 | pIC50 [2, 4]: 4.00 to 4.30

O=C(/C(=C\c1ccc(O)c([N+](=O)[O-])c1)S(=O)(=O)Cc1ccccc1Cl)c1ccc(Cl)cc1 [Example 362]
melting point: 222 to 226 °C

COc1ccc(/C=C(\C(=O)c2ccc(Cl)cc2)S(=O)(=O)Cc2ccccc2Cl)cc1 [Example 363]
melting point: 195 to 210 °C

O=C(/C(=C\c1cc(Br)c(O)c(Br)c1)S(=O)(=O)Cc1ccc(Br)cc1)c1ccc(Br)cc1 [Example 368]
pIC50 [1, 5]: 4.30 to 4.60 | pIC50 [2, 6]: 4.30 to 4.60

O=C(/C(=C\c1cc(Cl)c(O)c(Cl)c1)S(=O)(=O)Cc1ccc(Br)cc1)c1ccc(Br)cc1 [Example 369]
pIC50 [1, 5]: 4.30 to 4.60 | pIC50 [2, 6]: 4.30 to 4.60

CCN(CC)CCNC(=O)c1c(C)[nH]c(/C=C(\C(=O)c2ccc(Br)cc2)S(=O)(=O)Cc2ccc(Br)cc2)c1C [Example 370]
pIC50 [1, 7]: 5.00 to 6.00 | pIC50 [2, 7]: 5.00 to 6.00

O=C(O)c1ccc(C(=O)/C(=C\c2ccc(Cl)c([N+](=O)[O-])c2)S(=O)(=O)Cc2ccc(Br)cc2)cc1 [Example 372]
pIC50 [1, 5]: 4.30 to 4.60 | pIC50 [2, 6]: 4.30 to 4.60

O=C(/C(=C\c1ccc(O)c([N+](=O)[O-])c1)S(=O)(=O)Cc1ccc(Br)cc1)c1c(F)c(F)c(F)c(F)c1F [Example 373]
pIC50 [1, 7]: 4.00 to 4.30 | pIC50 [2, 7]: 4.00 to 4.30

CN(C)c1ccc(/C=C(\C(=O)c2ccc(C(=O)O)cc2)S(=O)(=O)Cc2ccc(Cl)cc2)cc1 [Example 390]
melting point: 176 to 180 °C

O=C(/C(=C\c1ccc(O)c([N+](=O)[O-])c1)S(=O)(=O)Cc1ccc(Cl)cc1)c1ccc(Cl)cc1 [Example 393]
pIC50 [1, 7]: 4.30 to 4.60 | pIC50 [2, 7]: 4.30 to 4.60

O=C(/C(=C\c1ccccc1OCc1ccccc1)S(=O)(=O)Cc1ccc(F)cc1)c1ccc(Cl)cc1 [Example 402]
melting point: 139 to 145 °C

O=C(/C(=C\c1ccc(Br)cc1)S(=O)(=O)Cc1ccc(F)cc1)c1ccc(Cl)cc1 [Example 410]
pIC50 [1, 5]: 4.00 to 4.30 | pIC50 [2, 6]: < 4.00

COc1ccccc1/C=C(\C(=O)c1ccc(Cl)cc1)S(=O)(=O)Cc1ccc(C)cc1 [Example 428]
pIC50 [1, 5]: 4.60 to 5.00 | pIC50 [2, 6]: 4.60 to 5.00

CSc1ccc(/C=C(\C(=O)c2ccc(Br)cc2)S(=O)(=O)Cc2ccc(C)cc2)cc1 [Example 436]
pIC50 [1, 5]: 4.60 to 5.00 | pIC50 [2, 6]: 4.60 to 5.00

COC(=O)c1ccc(C(=O)/C(=C\c2ccc(F)c([N+](=O)[O-])c2)SCc2ccc(Br)cc2)cc1 [Example 441, (E)-methyl-4-(2-(4-bromobenzylthio)-3-(4-fluoro-3-nitrophenyl)acryloyl)benzoate]
pIC50 ([1]; Homo sapiens, Table 5, examined 96 hours after treatment, 0.1 μM to 100 μM in DMSO): ≥ 6.00 | pIC50 ([2]; Homo sapiens, DU-145, Table 5, examined 96 hours after treatment, 0.1 μM to 100 μM in DMSO): ≥ 6.00
